This assay addresses CSF-1R (Homo sapiens, UniProt P07333). The experiment in a line: Peptide (non-phosphorylated) assay, fluorescence polarization competition immunoassay. Conditions: 0.7 nM CSF-1R, 308 μM SYEGNSYTFIDPTQ peptide, 1 mM ATP, 80 min; mean of at least three determinations; read-out: c-fms Peptide IC50. Type of assay: biochemical. As to the method: The kinase reaction was initiated by adding 1 μL of 10 mM ATP in assay buffer. […] Positive and negative control wells were included on each plate, where 4% DMSO in assay buffer was substituted for the compound; in addition, positive control wells received 1.2 μL of 50 mM EDTA before the start of the reaction.
The plates were covered and incubated at room temperature for 80 min. Reactions were stopped by addition of 1.2 μL of 50 mM EDTA. Each well then received 10 μL of a 1:1:3 mixture of 10× anti-phosphotyrosine antibody, 10×PTK green tracer, and FP dilution buffer, respectively (Cat. # P2837, Invitrogen, Carlsbad, Calif.). The plates were covered, incubated for 30 min at room temperature, and the fluorescence polarization was read on an Analyst plate reader (Molecular Devices).
Background: In fluorescence polarisation assays a small probe gives low polarisation when free and higher when bound to something large.
CSF-1R, sequence (P07333 20-972): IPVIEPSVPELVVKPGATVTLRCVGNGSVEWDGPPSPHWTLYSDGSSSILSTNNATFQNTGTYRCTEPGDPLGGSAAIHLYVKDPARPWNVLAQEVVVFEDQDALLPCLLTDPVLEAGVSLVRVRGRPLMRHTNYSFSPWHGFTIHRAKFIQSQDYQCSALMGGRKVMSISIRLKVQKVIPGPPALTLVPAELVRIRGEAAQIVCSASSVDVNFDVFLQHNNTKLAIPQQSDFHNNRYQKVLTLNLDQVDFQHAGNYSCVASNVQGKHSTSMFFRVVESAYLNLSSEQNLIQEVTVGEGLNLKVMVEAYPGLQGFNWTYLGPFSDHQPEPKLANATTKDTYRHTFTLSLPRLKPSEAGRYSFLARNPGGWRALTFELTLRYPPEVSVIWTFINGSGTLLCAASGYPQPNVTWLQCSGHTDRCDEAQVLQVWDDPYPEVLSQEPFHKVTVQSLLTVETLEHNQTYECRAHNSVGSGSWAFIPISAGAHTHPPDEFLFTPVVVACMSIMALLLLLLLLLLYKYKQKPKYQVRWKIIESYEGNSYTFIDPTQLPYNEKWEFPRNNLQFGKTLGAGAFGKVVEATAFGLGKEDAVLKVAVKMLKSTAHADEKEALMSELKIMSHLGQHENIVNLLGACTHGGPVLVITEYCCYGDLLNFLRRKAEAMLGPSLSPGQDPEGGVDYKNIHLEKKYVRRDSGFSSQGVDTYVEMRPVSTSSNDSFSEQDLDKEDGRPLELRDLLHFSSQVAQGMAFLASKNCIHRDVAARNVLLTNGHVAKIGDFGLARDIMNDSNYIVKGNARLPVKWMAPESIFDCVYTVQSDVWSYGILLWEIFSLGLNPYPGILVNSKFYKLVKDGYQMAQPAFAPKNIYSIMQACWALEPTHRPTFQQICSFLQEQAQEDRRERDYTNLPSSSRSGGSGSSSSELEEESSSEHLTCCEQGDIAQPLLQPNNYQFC
On to `CCc1ccc(-n2cc(C(=O)NOC)c(=O)c3cnc(Nc4ccc(CCN5CCNC(=O)C5)cc4)nc32)cc1` [Cpd 224, 8-(4-ethyl-phenyl)-5-oxo-2-{4-[2-(3-oxo-piperazin-1-yl)-ethyl]-phenylamino}-5,8-dihydro-pyrido[2,3-d]pyrimidine-6-carboxylic acid methoxy-amide], for which the IC50 (commonly the concentration needed to halve the response being measured) is 0.58 nM.

Regarding `CCc1ccc(-n2cc(C(=O)NOC)c(=O)c3cnc(Nc4ccc(-c5cccc(OC)c5)cc4)nc32)cc1` [Cpd 299, 8-(4-ethyl-phenyl)-2-(3′-methoxy-biphenyl-4-ylamino)-5-oxo-5,8-dihydro-pyrido[2,3-d]pyrimidine-6-carboxylic acid methoxy-amide], the half-maximal inhibitory concentration (IC50) was 32 nM.

`C#Cc1ccc(-n2cc(C(N)=O)c(=O)c3cnc(Nc4ccc(CCN5CCN(C)CC5)cc4)nc32)cc1` [Cpd 30, 8-(4-ethynyl-phenyl)-2-{4-[2-(4-methyl-piperazin-1-yl)-ethyl]-phenylamino}-5-oxo-5,8-dihydro-pyrido[2,3-d]pyrimidine-6-carboxylic acid amide]: the concentration for half-maximal inhibition (IC50) was determined as 14 nM.

Take `CN1CCC(c2ccc(Nc3ncc4c(=O)c(C(=O)O)cn(-c5ccc6c(c5)CCC6)c4n3)cc2)CC1` [Cpd 222, 8-indan-5-yl-2-[4-(1-methyl-piperidin-4-yl)-phenylamino]-5-oxo-5,8-dihydro-pyrido[2,3-d]pyrimidine-6-carboxylic acid]: the IC50 was determined as 29 nM.

For the compound `CONC(=O)c1cn(-c2ccc3c(c2)CCC3)c2nc(Nc3ccc([C@]4(O)CCN(C)C[C@H]4O)cc3)ncc2c1=O` [Cpd 250, 2-{4-[(3R,4R)-(3,4-dihydroxy-1-methyl-piperidin-4-yl)]-phenylamino}-8-indan-5-yl-5-oxo-5,8-dihydro-pyrido[2,3-d]pyrimidine-6-carboxylic acid methoxy-amide], the IC50 is 0.39 nM.

For `CONC(=O)c1cn(-c2ccc3c(c2)CCC3)c2nc(Nc3ccc(CCN4CC(O)C4)cc3)ncc2c1=O` [Cpd 254, 2-{4-[2-(3-hydroxy-azetidin-1-yl)-ethyl]-phenylamino}-8-indan-5-yl-5-oxo-5,8-dihydro-pyrido[2,3-d]pyrimidine-6-carboxylic acid methoxy-amide], the IC50 is 0.52 nM.

Take `CCc1ccc(-n2cc(C(=O)NOC)c(=O)c3cnc(Nc4ccc(C5CCN(CCCO)CC5)cc4)nc32)cc1` [Cpd 185, 8-(4-ethyl-phenyl)-2-{4-[1-(3-hydroxy-propyl)-piperidin-4-yl]-phenylamino}-5-oxo-5,8-dihydro-pyrido[2,3-d]pyrimidine-6-carboxylic acid methoxy-amide]: the IC50 amounted to 0.6 nM.

For `NCCNC(=O)c1cn(C2CCCC2)c2nc(Nc3ccc(CCN4CCCC4)cc3)ncc2c1=O` [Cpd 44, 8-cyclopentyl-5-oxo-2-[4-(2-pyrrolidin-1-yl-ethyl)-phenylamino]-5,8-dihydro-pyrido[2,3-d]pyrimidine-6-carboxylic acid (2-amino-ethyl)-amide], the IC50 came to 110 nM.

On to `CONC(=O)c1cn(-c2ccc(OC(F)(F)F)cc2)c2nc(Nc3ccc(CCN4CCN(C)CC4)cc3)ncc2c1=O` [Cpd 175, 2-{4-[2-(4-methylpiperazin-1-yl)-ethyl]-phenylamino}-5-oxo-8-(4-trifluoromethoxy-phenyl)-5,8-dihydropyrido[2,3-d]pyrimidine-6-carboxylic acid methoxy-amide], for which the IC50 is 1 nM.

In the case of `CC(C)ONC(=O)c1cn(C2CC2)c2nc(Nc3ccc(CCN4CCCC4)cc3)ncc2c1=O` [Cpd 143, 8-cyclopropyl-5-oxo-2-[4-(2-pyrrolidin-1-yl-ethyl)-phenylamino]-5,8-dihydro-pyrido[2,3-d]pyrimidine-6-carboxylic acid isopropoxy-amide], the IC50 stood at 130 nM.

Regarding `CONC(=O)c1cn(C2CCCCC2)c2nc(Nc3ccc(CCN4CCCC4=O)cc3)ncc2c1=O` [Cpd 13, 8-cyclohexyl-5-oxo-2-{4-[2-(2-oxo-pyrrolidin-1-yl)-ethyl]-phenylamino}-5,8-dihydro-pyrido[2,3-d]pyrimidine-6-carboxylic acid methoxy-amide], the IC50 turned out to be 1.6 nM.

Consider `CONC(=O)c1cn(-c2ccc3c(c2)CCC3)c2nc(Nc3ccc(CC(=O)N4CCN(C)CC4)cc3)ncc2c1=O` [Cpd 152, 8-indan-5-yl-2-{4-[2-(4-methylpiperazin-1-yl)-2-oxo-ethyl]-phenylamino}-5-oxo-5,8-dihydro-pyrido[2,3-d]pyrimidine-6-carboxylic acid methoxy-amide], for which the concentration for half-maximal inhibition (IC50) was 1.5 nM.

Take `CCc1ccc(-n2cc(C(=O)NOC)c(=O)c3cnc(Nc4ccc(CCN5CC(F)(F)C5)cc4)nc32)cc1` [Cpd 269, 2-{4-[2-(3,3-difluoro-azetidin-1-yl)-ethyl]-phenylamino}-8-(4-ethyl-phenyl)-5-oxo-5,8-dihydro-pyrido[2,3-d]pyrimidine-6-carboxylic acid methoxy-amide]: the IC50 was determined as 1.5 nM.

`CONC(=O)c1cn(-c2ccc3c(c2)CCC3)c2nc(Nc3cccc(S(=O)(=O)N(C)C)c3)ncc2c1=O` [Cpd 129, 2-(3-dimethylsulfamoyl-phenylamino)-8-indan-5-yl-5-oxo-5,8-dihydro-pyrido[2,3-d]pyrimidine-6-carboxylic acid methoxy-amide]: the IC50 is 2.3 nM.

In the case of `CONC(=O)c1cn(C2CCCC2)c2nc(Nc3ccc(CCN4CCCC4=O)cc3)ncc2c1=O` [Cpd 38, 8-cyclopentyl-5-oxo-2-{4-[2-(2-oxo-pyrrolidin-1-yl)-ethyl]-phenylamino}-5,8-dihydro-pyrido[2,3-d]pyrimidine-6-carboxylic acid methoxy-amide], the IC50 was 2 nM.

As for `CCONC(=O)c1cn(C2CCCCC2)c2nc(Nc3ccc(CCN4CCCC4)cc3)ncc2c1=O` [Cpd 15, 8-cyclohexyl-5-oxo-2-[4-(2-pyrrolidin-1-yl-ethyl)-phenylamino]-5,8-dihydro-pyrido[2,3-d]pyrimidine-6-carboxylic acid ethoxy-amide], the IC50 was found to be 0.19 nM.

For `CCc1ccc(-n2cc(C(=O)NOC)c(=O)c3cnc(Nc4ccc(OCCCOC)c(OCCCOC)c4)nc32)cc1` [Cpd 323, 2-[3,4-bis-(3-methoxy-propoxy)-phenylamino]-8-(4-ethyl-phenyl)-5-oxo-5,8-dihydro-pyrido[2,3-d]pyrimidine-6-carboxylic acid methoxy-amide], the IC50 was 1 nM.

With `CONC(=O)c1cn(-c2ccc3c(c2)CCC3)c2nc(Nc3cccc(C(=O)NCCN(C)C)c3)ncc2c1=O` [Cpd 199, 2-[3-(2-dimethylamino-ethylcarbamoyl)-phenylamino]-8-indan-5-yl-5-oxo-5,8-dihydro-pyrido[2,3-d]pyrimidine-6-carboxylic acid methoxy-amide], the IC50 was 1.4 nM.

With `CCN1CCCC1CNC(=O)c1cccc(Nc2ncc3c(=O)c(C(=O)NOC)cn(-c4ccc5c(c4)CCC5)c3n2)c1` (centres unmarked) [Cpd 193, 2-{3-[(1-ethyl-pyrrolidin-2-ylmethyl)-carbamoyl]-phenylamino}-8-indan-5-yl-5-oxo-5,8-dihydro-pyrido[2,3-d]pyrimidine-6-carboxylic acid methoxy-amide], the IC50 turned out to be 2.5 nM.

For `CONC(=O)c1cn(-c2ccc3c(c2)CCC3)c2nc(Nc3ccc(CCn4ccnc4)cc3)ncc2c1=O` [Cpd 171, 2-[4-(2-imidazol-1-yl-ethyl)-phenylamino]-8-indan-5-yl-5-oxo-5,8-dihydro-pyrido[2,3-d]pyrimidine-6-carboxylic acid methoxy-amide], the IC50 stood at 0.76 nM.

As for `CONC(=O)c1cn(-c2ccc3c(c2)CCC3)c2nc(Nc3cccc(N(C)C)c3)ncc2c1=O` [Cpd 326, 2-(3-dimethylamino-phenylamino)-8-indan-5-yl-5-oxo-5,8-dihydro-pyrido[2,3-d]pyrimidine-6-carboxylic acid methoxy-amide], the IC50 worked out at 1.1 nM.

`CCc1ccc(-n2cc(C(=O)NOC)c(=O)c3cnc(Nc4ccc(CC(=O)NN5CCCCC5)cc4)nc32)cc1` [Cpd 104, 8-(4-ethyl-phenyl)-5-oxo-2-[4-(piperidin-1-ylcarbamoylmethyl)-phenylamino]-5,8-dihydro-pyrido[2,3-d]pyrimidine-6-carboxylic acid methoxy-amide]: the IC50 turned out to be 3 nM.

For `CONC(=O)c1cn(-c2ccc3c(c2)CCC3)c2nc(Nc3ccc(CCNS(C)(=O)=O)cc3)ncc2c1=O` [Cpd 82, 8-indan-5-yl-2-[4-(2-methanesulfonylamino-ethyl)-phenylamino]-5-oxo-5,8-dihydro-pyrido[2,3-d]pyrimidine-6-carboxylic acid methoxy-amide], the IC50 is 3.6 nM.

In the case of `CONC(=O)c1cn(-c2ccc3c(c2)CCC3)c2nc(Nc3ccc(CCN4CC(F)(F)C4)cc3)ncc2c1=O` [Cpd 270, 2-{4-[2-(3,3-difluoro-azetidin-1-yl)-ethyl]-phenylamino}-8-indan-5-yl-5-oxo-5,8-dihydro-pyrido[2,3-d]pyrimidine-6-carboxylic acid methoxy-amide], the IC50 was 1.6 nM.

As for `CONC(=O)c1cn(C2CCCC2)c2nc(Nc3ccc(C(=O)N4CCCC4)cc3)ncc2c1=O` [Cpd 36, 8-cyclopentyl-5-oxo-2-[4-(pyrrolidine-1-carbonyl)-phenylamino]-5,8-dihydro-pyrido[2,3-d]pyrimidine-6-carboxylic acid methoxy-amide], the IC50 amounted to 2.1 nM.

`CCONC(=O)c1cn(-c2ccc3c(c2)CCC3)c2nc(Nc3ccc(C4CCN(C)CC4)cc3)ncc2c1=O` [Cpd 139, 8-indan-5-yl-2-[4-(1-methyl-piperidin-4-yl)-phenylamino]-5-oxo-5,8-dihydro-pyrido[2,3-d]pyrimidine-6-carboxylic acid ethoxy-amide]: the IC50 is 1 nM.

Source of the values: patent US20080114007A1 (priority 2006, published 2008).
